Molecular target: T1, F508del (Homo sapiens, UniProt P13569, DEL508-508)
T1 construct: expressed in transfected cells
Experiment: Protocol 1: membrane potential optical assay (FLIPR III, voltage sensing dye), identification of potentiator compounds
Assay type: cell-based
Conditions: Table 3, compounds of Table 1
Summary of the method: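 Mouse NIH 3T3 fibroblasts stably expressing F508del, temperature-corrected at 27 °C for 24 h, pretreated with compound, then loaded with voltage-sensing redistribution dye. Forskolin was added in a single step with a chloride gradient (chloride-free gluconate bath; Bath Solution #1 HEPES pH 7.4). Membrane-potential fluorescence read on FLIPR III.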

T1 sequence (P13569 with tags, fused parts or gaps DEL508-508): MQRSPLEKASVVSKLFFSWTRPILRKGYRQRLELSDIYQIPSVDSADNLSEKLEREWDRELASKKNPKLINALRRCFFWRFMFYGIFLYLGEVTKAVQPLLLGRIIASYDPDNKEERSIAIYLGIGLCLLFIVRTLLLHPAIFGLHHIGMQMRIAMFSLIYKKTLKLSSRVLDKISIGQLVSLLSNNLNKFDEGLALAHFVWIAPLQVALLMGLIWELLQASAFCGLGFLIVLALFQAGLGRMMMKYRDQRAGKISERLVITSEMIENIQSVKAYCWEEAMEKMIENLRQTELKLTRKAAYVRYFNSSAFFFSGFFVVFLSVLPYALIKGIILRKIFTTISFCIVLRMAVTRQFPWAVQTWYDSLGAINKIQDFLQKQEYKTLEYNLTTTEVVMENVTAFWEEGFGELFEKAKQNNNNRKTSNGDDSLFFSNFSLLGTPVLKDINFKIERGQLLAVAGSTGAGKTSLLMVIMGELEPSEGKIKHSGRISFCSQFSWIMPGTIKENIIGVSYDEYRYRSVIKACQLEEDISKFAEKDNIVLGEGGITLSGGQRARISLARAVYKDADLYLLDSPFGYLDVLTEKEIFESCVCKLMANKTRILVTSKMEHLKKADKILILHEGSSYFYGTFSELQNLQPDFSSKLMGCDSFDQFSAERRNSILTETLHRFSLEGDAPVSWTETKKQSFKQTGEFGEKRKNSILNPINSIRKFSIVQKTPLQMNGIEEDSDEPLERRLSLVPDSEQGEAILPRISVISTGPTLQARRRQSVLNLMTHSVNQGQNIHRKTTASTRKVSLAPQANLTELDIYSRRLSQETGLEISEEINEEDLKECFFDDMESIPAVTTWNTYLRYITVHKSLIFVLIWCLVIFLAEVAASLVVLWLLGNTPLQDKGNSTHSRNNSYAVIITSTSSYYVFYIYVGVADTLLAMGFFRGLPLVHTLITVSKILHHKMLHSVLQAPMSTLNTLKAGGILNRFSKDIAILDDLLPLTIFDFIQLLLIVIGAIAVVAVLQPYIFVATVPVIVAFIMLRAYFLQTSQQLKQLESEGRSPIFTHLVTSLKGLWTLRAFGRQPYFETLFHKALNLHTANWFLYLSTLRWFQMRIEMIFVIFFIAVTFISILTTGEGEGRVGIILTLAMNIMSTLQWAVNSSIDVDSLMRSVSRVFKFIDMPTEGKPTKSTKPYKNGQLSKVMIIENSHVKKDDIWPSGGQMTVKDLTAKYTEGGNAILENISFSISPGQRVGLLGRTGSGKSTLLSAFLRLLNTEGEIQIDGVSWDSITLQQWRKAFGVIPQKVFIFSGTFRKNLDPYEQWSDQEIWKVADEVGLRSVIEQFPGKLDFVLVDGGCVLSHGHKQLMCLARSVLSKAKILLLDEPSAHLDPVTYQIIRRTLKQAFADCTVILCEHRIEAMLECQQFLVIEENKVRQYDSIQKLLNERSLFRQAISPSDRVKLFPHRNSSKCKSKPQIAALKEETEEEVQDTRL

Row | SMILES | EC30
1 | C[C@@H]1CN(c2nc(C#N)ccc2C(=O)NS(=O)(=O)c2cccc(N)n2)C(C)(C)C1 [Compound 1564, N-[(6-amino-2-pyridyl)sulfonyl]-6-cyano-2-[(4S)-2,2,4-trimethylpyrrolidin-1-yl]pyridine-3-carboxamide] | ++ (“++” means between 3 uM and 10 uM)
2 | CCOc1cccc2c1CN(Cc1ccc(Cl)nc1)C2(C)C(=O)NS(=O)(=O)c1cccc(N)n1 (centres unmarked) [Compound 1565, N-[(6-amino-2-pyridyl)sulfonyl]-2-[(6-chloro-3-pyridyl)methyl]-4-ethoxy-1-methyl-isoindoline-1-carboxamide] | + (“+” means greater than 10 uM)
3 | C[C@@H]1CN(c2nc(C(C)(C)C)c(/C=C/c3ccc(C(F)(F)F)cc3)cc2C(=O)NS(=O)(=O)c2cccc(N)n2)C(C)(C)C1 [Compound 1566, N-[(6-amino-2-pyridyl)sulfonyl]-6-tert-butyl-5-[(E)-2-[4-(trifluoromethyl)phenyl]vinyl]-2-[(4S)-2,2,4-trimethylpyrrolidin-1-yl]pyridine-3-carboxamide] | +++ (“+++” means <3 uM)
4 | CC(CO)COc1cc(F)cc(-c2ccc(C(=O)NS(=O)(=O)c3cccc(N)n3)c(N3C[C@@H](C)CC3(C)C)n2)c1 (stereo partly drawn) [Compound 1567, N-[(6-amino-2-pyridyl)sulfonyl]-6-[3-fluoro-5-(3-hydroxy-2-methyl-propoxy)phenyl]-2-[(4S)-2,2,4-trimethylpyrrolidin-1-yl]pyridine-3-carboxamide] | +++ (“+++” means <3 uM)
5 | Cc1cc(C)c(Cn2nc(C(C)(C)C)cc2C(=O)NS(=O)(=O)c2cn(C)cn2)c(C)c1 [Compound 1568, 5-tert-butyl-N-(1-methylimidazol-4-yl)sulfonyl-2-[(2,4,6-trimethylphenyl)methyl]pyrazole-3-carboxamide] | +++ (“+++” means <3 uM)
6 | CCOc1cc(-c2ccc(C(=O)NS(=O)(=O)c3cccc(N)n3)c(N3C[C@@H](C)CC3(C)C)n2)cc(C(F)(F)F)c1 [Compound 1569, N-[(6-amino-2-pyridyl)sulfonyl]-6-[3-ethoxy-5-(trifluoromethyl)phenyl]-2-[(4S)-2,2,4-trimethylpyrrolidin-1-yl]pyridine-3-carboxamide] | +++ (“+++” means <3 uM)
7 | CC(C)COc1cc(F)cc(-c2ccc(C(=O)NS(=O)(=O)c3cccc(N)n3)c(OCC3CCCCO3)n2)c1 (centres unmarked) [Compound 1570, N-[(6-amino-2-pyridyl)sulfonyl]-6-(3-fluoro-5-isobutoxy-phenyl)-2-(tetrahydropyran-2-ylmethoxy)pyridine-3-carboxamide] | +++ (“+++” means <3 uM)
8 | CC1CN(c2ncc(/C=C/C3CC3)cc2C(=O)NS(=O)(=O)c2cccc(N)n2)C(C)(C)C1 (centres unmarked) [Compound 1571, N-[(6-amino-2-pyridyl)sulfonyl]-5-[(E)-2-cyclopropylvinyl]-2-(2,2,4-trimethylpyrrolidin-1-yl)pyridine-3-carboxamide] | +++ (“+++” means <3 uM)
9 | Cc1cc(C)c2c(c1)CCN2c1nc(-c2cc(F)cc(OCC(C)C)c2)ccc1C(=O)NS(=O)(=O)c1cccc(N)n1 [Compound 1572, N-[(6-amino-2-pyridyl)sulfonyl]-2-(5,7-dimethylindolin-1-yl)-6-(3-fluoro-5-isobutoxy-phenyl)pyridine-3-carboxamide] | +++ (“+++” means <3 uM)
10 | CC(C)Oc1ccc(C(=O)NS(=O)(=O)c2cccc(N)n2)c(N2C[C@@H](C)CC2(C)C)n1 [Compound 1573, N-[(6-amino-2-pyridyl)sulfonyl]-6-isopropoxy-2-[(4S)-2,2,4-trimethylpyrrolidin-1-yl]pyridine-3-carboxamide] | +++ (“+++” means <3 uM)
11 | Cc1ccnc(C)c1Oc1nc(-c2cc(F)cc(OCC(C)C)c2)ccc1C(=O)NS(=O)(=O)c1cccc(N)n1 [Compound 1574, N-[(6-amino-2-pyridyl)sulfonyl]-2-[(2,4-dimethyl-3-pyridyl)oxy]-6-(3-fluoro-5-isobutoxy-phenyl)pyridine-3-carboxamide] | ++ (“++” means between 3 uM and 10 uM)

— patent publication US10758534B2 (Vertex Pharmaceuticals Incorporated, priority 2014, dated 2020)
